Publication PMC8261786 (Chemical Science, 2021)

Experiments:
SH-SY5Y cells [1] = assay: LDH membrane leakage, SH-SY5Y; format: cell-based, human; conditions: 25 μM amyloid, 24 h, n = 3
S. epidermidis = assay: Bacterial growth assay, S. epidermidis; format: cell-based, Staphylococcus epidermidis (ATCC 14990); conditions: amyloid peptides 25 μM
[2] = test system: E. coli, P. aeruginosa, S. aureus and S. epidermidis; assay: Bacterial growth assay, four strains together; format: cell-based; conditions: hCT 25 μM, growth profiles
SDS-PAGE = format: physicochemical; conditions: 25 μM amyloid peptide alone; for size of monomers and oligomers (SDS-PAGE): 1–2 h; for size of large aggregates (SDS-PAGE): 24 h
SH-SY5Y cells [3] = assay: MTT cell viability, SH-SY5Y; format: cell-based, human; conditions: 25 μM amyloid, 24 h, n = 3
RIN-5fm cells [4] = assay: MTT cell viability, RIN-5fm; format: cell-based, rat; conditions: 25 μM hIAPP, 24 h, n = 3
RIN-5fm cells [5] = assay: LDH membrane leakage, RIN-5fm; format: cell-based, rat; conditions: 25 μM hIAPP, 24 h, n = 3

SMILES | membrane leakage (LDH activity), amyloid alone (SH-SY5Y cells [1]) [%] | susceptibility of S. epidermidis (S. epidermidis) | growth inhibition [2] | size of monomers and oligomers (SDS-PAGE) (SDS-PAGE) | size of large aggregates (SDS-PAGE) (SDS-PAGE) [kDa] | cell viability, amyloid alone (SH-SY5Y cells [3]) [%] | cell viability, amyloid alone (RIN-5fm cells [4]) [%] | membrane leakage (LDH activity), amyloid alone (RIN-5fm cells [5]) [%]
CC[C@H](C)[C@H](NC(=O)[C@H](C)NC(=O)[C@@H](NC(=O)[C@H](CCC(N)=O)NC(=O)[C@@H]1CCCN1C(=O)[C@H](Cc1ccccc1)NC(=O)[C@@H](NC(=O)[C@H](Cc1c[nH]cn1)NC(=O)[C@H](Cc1ccccc1)NC(=O)[C@H](CCCCN)NC(=O)[C@H](CC(N)=O)NC(=O)[C@H](Cc1ccccc1)NC(=O)[C@H](CC(=O)O)NC(=O)[C@H](CCC(N)=O)NC(=O)[C@@H](NC(=O)[C@H](Cc1ccc(O)cc1)NC(=O)[C@@H](NC(=O)CNC(=O)[C@H](CC(C)C)NC(=O)[C@H](CCSC)NC(=O)[C@@H]1CSSC[C@H](N)C(=O)NCC(=O)N[C@@H](CC(N)=O)C(=O)N[C@@H](CC(C)C)C(=O)N[C@@H](CO)C(=O)N[C@@H]([C@@H](C)O)C(=O)N1)[C@@H](C)O)[C@@H](C)O)[C@@H](C)O)[C@@H](C)O)C(=O)NCC(=O)N[C@H](C(=O)NCC(=O)N[C@@H](C)C(=O)N1CCC[C@H]1C(N)=O)C(C)C [hCT, human calcitonin 1–32] | 26 | not susceptible | only inhibited the growth of P. aeruginosa | 5–15 kDa | > 25 | 69 | – | –
CC[C@H](C)[C@H](NC(=O)[C@H](C)NC(=O)CNC(=O)[C@H](Cc1ccccc1)NC(=O)[C@H](CC(N)=O)NC(=O)[C@H](CC(N)=O)NC(=O)[C@H](CO)NC(=O)[C@H](CO)NC(=O)[C@H](Cc1c[nH]cn1)NC(=O)[C@@H](NC(=O)[C@H](CC(C)C)NC(=O)[C@H](Cc1ccccc1)NC(=O)[C@H](CC(N)=O)NC(=O)[C@H](C)NC(=O)[C@H](CC(C)C)NC(=O)[C@H](CCCNC(=N)N)NC(=O)[C@H](CCC(N)=O)NC(=O)[C@@H](NC(=O)[C@H](C)NC(=O)[C@@H]1CSSC[C@H](NC(=O)[C@@H](N)CCCCN)C(=O)N[C@@H](CC(N)=O)C(=O)N[C@@H]([C@@H](C)O)C(=O)N[C@@H](C)C(=O)N[C@@H]([C@@H](C)O)C(=O)N1)[C@@H](C)O)C(C)C)C(=O)N[C@@H](CC(C)C)C(=O)N[C@@H](CO)C(=O)N[C@@H](CO)C(=O)N[C@H](C(=O)N[C@@H](CC(N)=O)C(=O)N[C@H](C(=O)NCC(=O)N[C@@H](CO)C(=O)N[C@@H](CC(N)=O)C(=O)N[C@H](C(=O)N[C@@H](Cc1ccc(O)cc1)C(N)=O)[C@@H](C)O)C(C)C)[C@@H](C)O [hIAPP, human islet amyloid polypeptide 1–37] | – | not susceptible | – | 5–15 kDa | > 25 | – | 58 | 36
